Laboratory results from patent US4558052A, “10-Bromosandwicine, 10-bromoisosandwicine, pharmaceutical compositions thereof, and methods of treating heart rhythm disorders with them” (Kali-Chemie Pharma GmbH, priority 1979, dated 1985).
Entries after “also recorded” stand apart in the source; their conditions may differ. Structures can show the parent of a compound that is named as a salt.

How the values were obtained:
[1] = words, known from literature; cited from earlier work
[2] = tested on: cardiac extra-systoles induced by aconitine; assay: Antiarrhythmic activity against cardiac extra-systoles induced by aconitine in rats (Raschack); assay type: in vivo; settings: i.v., equitoxic dose about 5% of the i.p. LD50 in mice, aconitine 5 μg/kg/min i.v., vs control group
Experimental: C. Determination of antiarrhythmic activity against cardiac extra-systoles induced by aconitine in rats.
The protective effects of the compounds against extra-systoles (ES) caused by aconitine infusion in rats are determined according to the method of Raschack (Arzneimittelforsch. 25 (1975) 639-641).
Male Wistar rats having a body weight of 320-400 g are anesthetized by i.p. application of 1.25 g/kg urethane. The animals are placed on their backs and their electrocardiogram is registered every 30 seconds during the test. The animals are given an i.v. aconitine infusion at an infusion rate of 5 μg/kg/min of aconitine with an infusion volume of 0.1 ml/minute. 5 Minutes prior to starting the aconitine infusion the animals are given a solution of the test compound in an amount of 2 ml/kg bodyweight of isotonic NaCl solution by i.v. infusion over a period of about 2.5 minutes. A control group of animals is given only the vehicle solution. The infusion time until occurence of extra-systoles is determined.
Antiarrhythmically active test compounds lead to a retardation of the onset of aconitine-induced cardiac extra-systoles in the treated animals as compared with the group of control animals. The degree of prolongation of aconitine-infusion time and thus of increase of administered amount of aconitine up to which the animals are protected against the aconitine induced extra-systoles is an indication of the degree of antiarrhythmic activity of the test compounds.
Equitoxic doses of the test compounds are used namely doses which correspond to about 5% of the i.p. LD50 of the compound in mice. The % increase in aconitine infusion time (that is % increase of administered amount of aconitine) until onset of the extra-systoles in the treated animals as compared with the control group is determined.

[3] = tested on: male NMRI-mice; assay: Minimum symptom dose at which any undesirable side effects are detected (Campbell and Richter); assay type: in vivo; settings: dose causing changes in behaviour in 2 out of 3 mice
Experimental: B. Determination of minimum symptom dose at which any undesirable side effects are detected.
The minimum symptom dose is determined in male NMRI-mice (body weight range 18-22 g) according to the procedure of Campbell and Richter (see D. E. S. Campbell and W. Richter. Acta Pharmacol. Toxicol. 25 (1967) pp. 345-363). The minimum symptom dose is defined as that dose in μmol/kg which after i.p. administration causes changes in behaviour in 2 out of 3 mice. The minimum symptom dose is a measure for evaluation of undesirable side effects.

[4] = tested on: male NMRI-mice; assay: Acute toxicity LD50 i.p. and p.o. in mice; assay type: in vivo; settings: probit analysis
Experimental: A. Determination of acute toxicity LD50 i.p. and p.o. in mice.
The acute toxicity of the compounds is determined in male NMRI-mice (body weight range 18-22 g) after i.p. or p.o. administration. The LD50 values are calculated by means of electronic data processing through a probit analysis.

[5] = Antiarrhythmic activity in a standard pharmacological in vivo test procedure; settings: words

Compound | cardiac / antiarrhythmic activities [1] | Minimum symptom dose i.p. [3] [µmol/kg] | Toxicity LD50 i.p. [4] | Toxicity LD50 p.o. [4] [µmol/kg] | further results
CC[C@H]1[C@@H]2C[C@H]3[C@@H]4N(C)c5ccccc5[C@]45C[C@@H]([C@H]2[C@H]5O)N3[C@@H]1O [Ajmaline] | cardiac activities including antiarrhythmic activities |  |  |  | 
CCC1C2CC3C4N(C)c5ccccc5C45CC(C2C5O)N3C1O (stereo not drawn) [Isosandwicine hydrogen fumarate] |  | 10 | ~ 56 μmol/kg | 471 | ES-inhibiting effect (result in words) [2]: not significant
CC[C@@H]1[C@H]2C[C@H]3[C@@H]4N(C)c5ccccc5[C@]45C[C@@H](C2[C@H]5O)N3[C@H]1O (stereo partly drawn) [isoajmaline] | cardiac activities including antiarrhythmic activities |  |  |  | 
CCC1C2CC3C4N(C)c5ccc(Br)cc5C45CC(C2C5O)N3C1O (stereo not drawn) [10-bromoajmaline] | cardiac activities |  |  |  | 
CCC1C2CC3C4N(C)c5ccccc5C45CC(C2C5O)N3C1O (stereo not drawn) [sandwicine, Sandwicine] |  |  |  |  | antiarrhythmic activity [5]: no significant antiarrhythmic effects; also recorded: no significant antiarrhythmic activities
CCC1C2CC3C4N(C)c5ccccc5C45CC(C2C5O)N3C1O (stereo not drawn) [Sandwicine hydrogen tartrate] |  | 58 | ~ 325 μmol/kg | 1530 | ES-inhibiting effect (result in words) [2]: not significant
CCC1C2CC3C4N(C)c5ccc(Br)cc5C45CC(C2C5O)N3C1O (stereo not drawn) [10-bromoisosandwicine hydrogen tartrate, 10-bromoisosandwicinium hydrogentartrate] |  | 3 | 25 µmol/kg | 65 | Antiarrhythmic activity, ES-inhibiting effect: % prolongation of aconitine infusion time until onset of extra-systoles [2]: 25%
CCC1C2CC3C4N(C)c5ccc(Br)cc5C45CC(C2C5O)N3C1O (stereo not drawn) [10-bromosandwicine hydrogen tartrate, 10-bromosandwicine hydrogentartrate] |  | 92 | 307 µmol/kg | 2200 | Antiarrhythmic activity, ES-inhibiting effect: % prolongation of aconitine infusion time until onset of extra-systoles [2]: 25%
CCC1C2CC3C4N(C)c5ccccc5C45CC(C2C5O)N3C1O (stereo not drawn) [isosandwicine] |  |  |  |  | antiarrhythmic activity [5]: no significant antiarrhythmic effects; also recorded: no significant antiarrhythmic activities
